Test results from ChEMBL document CHEMBL3714729, “Heterocyclic compounds for the inhibition of pask” (2012).

What was measured:
[1] = molecular target: T1, PAS domain-containing serine/threonine-protein kinase (Homo sapiens, UniProt Q96RG2); assay: Inhibition of human recombinant PASK using Ulight-peptide substrate incubated for 2 hrs by TR-FRET assay
[2] = molecular target: T1, PAS domain-containing serine/threonine-protein kinase; assay: Inhibition of N-terminal GST-tagged human recombinant PASK kinase domain (879 to 1323 residues) expressed in insect cells using MBP protein substrate incubated for 120 mins in presence of [33P]ATP by scintillation counting based radiochemical assay
[3] = molecular target: Casein kinase II subunit alpha' (Homo sapiens, UniProt P19784); assay: Inhibition of GST-tagged full-length purified human CK2a2 using RRRDDDSDDD substrate incubated for 120 mins in presence of [33P]ATP by scintillation counting based biochemical assay
Casein kinase II subunit alpha', sequence (P19784 whole entry): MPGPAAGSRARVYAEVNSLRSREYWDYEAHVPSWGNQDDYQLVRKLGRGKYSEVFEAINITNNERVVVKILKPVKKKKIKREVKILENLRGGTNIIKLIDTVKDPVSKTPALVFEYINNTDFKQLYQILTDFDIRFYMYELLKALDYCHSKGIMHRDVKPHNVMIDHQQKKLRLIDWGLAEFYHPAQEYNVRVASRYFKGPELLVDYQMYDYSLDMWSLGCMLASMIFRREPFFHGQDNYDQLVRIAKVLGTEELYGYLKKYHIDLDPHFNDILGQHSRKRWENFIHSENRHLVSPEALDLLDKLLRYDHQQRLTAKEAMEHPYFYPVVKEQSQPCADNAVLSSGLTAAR

T1 sequence (Q96RG2 whole entry, the tested form may be a part): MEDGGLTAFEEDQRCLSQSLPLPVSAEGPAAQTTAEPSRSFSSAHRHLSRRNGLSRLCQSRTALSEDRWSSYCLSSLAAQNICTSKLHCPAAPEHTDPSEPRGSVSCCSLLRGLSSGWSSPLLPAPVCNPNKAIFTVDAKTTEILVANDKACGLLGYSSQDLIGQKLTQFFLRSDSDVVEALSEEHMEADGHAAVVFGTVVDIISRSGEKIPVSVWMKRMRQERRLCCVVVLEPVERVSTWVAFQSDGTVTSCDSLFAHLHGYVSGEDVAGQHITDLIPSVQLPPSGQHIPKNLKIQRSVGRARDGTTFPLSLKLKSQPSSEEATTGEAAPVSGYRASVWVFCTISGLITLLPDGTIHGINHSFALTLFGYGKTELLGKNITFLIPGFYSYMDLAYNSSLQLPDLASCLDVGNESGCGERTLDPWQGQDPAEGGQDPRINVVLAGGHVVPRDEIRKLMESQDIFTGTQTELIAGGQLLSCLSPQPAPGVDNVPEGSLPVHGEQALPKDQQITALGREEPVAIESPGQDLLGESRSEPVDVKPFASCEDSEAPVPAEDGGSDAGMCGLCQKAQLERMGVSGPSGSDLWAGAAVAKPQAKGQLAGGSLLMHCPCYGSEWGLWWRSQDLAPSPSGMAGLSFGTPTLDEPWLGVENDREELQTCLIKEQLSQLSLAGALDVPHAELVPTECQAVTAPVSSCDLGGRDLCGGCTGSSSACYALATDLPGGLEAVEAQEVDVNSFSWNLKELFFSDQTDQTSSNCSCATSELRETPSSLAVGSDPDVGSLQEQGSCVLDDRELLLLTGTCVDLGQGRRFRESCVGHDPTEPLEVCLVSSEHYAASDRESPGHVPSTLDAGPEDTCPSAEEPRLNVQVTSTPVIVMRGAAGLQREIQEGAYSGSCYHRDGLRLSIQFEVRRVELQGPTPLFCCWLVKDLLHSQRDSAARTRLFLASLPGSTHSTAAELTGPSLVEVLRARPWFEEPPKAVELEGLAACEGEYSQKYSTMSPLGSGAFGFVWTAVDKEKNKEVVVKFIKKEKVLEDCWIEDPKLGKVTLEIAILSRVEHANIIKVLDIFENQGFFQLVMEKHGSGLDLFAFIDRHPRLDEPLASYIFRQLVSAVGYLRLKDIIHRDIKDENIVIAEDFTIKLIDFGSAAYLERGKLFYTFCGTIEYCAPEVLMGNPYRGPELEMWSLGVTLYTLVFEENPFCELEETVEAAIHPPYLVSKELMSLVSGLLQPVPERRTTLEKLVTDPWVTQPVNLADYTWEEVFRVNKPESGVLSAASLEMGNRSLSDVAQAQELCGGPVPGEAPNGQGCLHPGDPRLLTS

Row | SMILES | IC50 [1] | IC50 [2] | IC50 [3]
1 | O=c1cc(-c2ccc3c(c2)OCCO3)[nH]c2c(-c3ccc(N4CCCC4)nc3)cnn12 | ≤ 10 µM | ≤ 10 µM | ≤ 10 µM
2 | CNC(=O)Oc1ccc(-c2cc(=O)n3nc(C)c(-c4ccccn4)c3[nH]2)cc1 | ≤ 10 µM | – | –
3 | O=c1cc(-c2ccc3c(c2)OCCO3)[nH]c2c(-c3cccnc3)cnn12 | – | – | ≤ 10 µM
4 | O=c1cc(-c2ccc3cc[nH]c3c2)[nH]c2c(-c3ccccc3)cnn12 | ≤ 10 µM | ≤ 10 µM | ≤ 10 µM
5 | CNC(=O)Oc1ccc(-c2cc(=O)n3ncc(-c4ccccn4)c3[nH]2)cc1 | ≤ 10 µM | – | –
6 | NC(=O)c1cnn2c(=O)cc(-c3ccc4c(c3)OCCO4)[nH]c12 | ≤ 10 µM | ≤ 10 µM | ≤ 10 µM
7 | COc1cccc(-c2cc(=O)n3nc(C)c(Cc4ccc(Cl)cc4)c3[nH]2)c1 | – | – | ≥ 10 µM
8 | O=c1cc(-c2ccc3c(c2)CCO3)[nH]c2c(-c3ccccc3)cnn12 | ≤ 10 µM | ≤ 10 µM | ≤ 10 µM
9 | O=c1cc(-c2ccc3c(c2)CCO3)[nH]c2c(-c3cccnc3)cnn12 | ≤ 10 µM | ≤ 10 µM | ≤ 10 µM
10 | COc1cccc(-c2cnn3c(=O)cc(-c4ccc5c(c4)OCCO5)[nH]c23)c1 | ≤ 10 µM | ≤ 10 µM | ≤ 10 µM
11 | Cc1nn2c(=O)cc(-c3ccc4c(c3)OCCO4)[nH]c2c1-c1ccc(F)cc1 | ≤ 10 µM | ≤ 10 µM | ≤ 10 µM
12 | O=c1cc(-c2ccc3c(c2)OCCO3)[nH]c2c(-c3cccc(F)c3)cnn12 | ≤ 10 µM | – | ≤ 10 µM
13 | O=c1cc(-c2ccc3c(c2)OCCO3)[nH]c2c(-c3ccc(N4CCCCC4)nc3)cnn12 | ≤ 10 µM | – | ≤ 10 µM
14 | CCCc1c(C)nn2c(=O)cc(-c3ccc(OC)cc3)[nH]c12 | ≤ 10 µM | ≤ 10 µM | ≥ 10 µM
15 | O=C(NCc1ccccc1)c1cnn2c(=O)cc(-c3ccc4c(c3)OCCO4)[nH]c12 | ≤ 10 µM | ≤ 10 µM | –
16 | CN1CCN(C(=O)c2cnn3c(=O)cc(-c4ccc5c(c4)OCCO5)[nH]c23)CC1 | ≤ 10 µM | ≤ 10 µM | –
17 | O=c1cc(-c2ccc3c(c2)OCCO3)[nH]c2c(-c3ccccc3)cnn12 | – | – | ≤ 10 µM

Row | SMILES | IC50 [1] | IC50 [2] | IC50 [3]
18 | COc1ccc(-c2cc(=O)n3ncc(-c4ccc(F)cc4)c3[nH]2)cc1 | – | – | ≤ 10 µM
19 | Cc1nn2c(=O)cc(-c3ccc(OC(C)C)cc3)[nH]c2c1Cc1ccc(Cl)cc1 | – | – | ≥ 10 µM
20 | Cc1nn2c(=O)cc(-c3ccc(C(F)(F)F)cc3)[nH]c2c1Cc1ccc(Cl)cc1 | – | – | ≥ 10 µM
21 | Cc1nn2c(=O)cc(-c3ccc4c(c3)OCO4)[nH]c2c1Cc1cccc(Cl)c1 | ≤ 10 µM | ≤ 10 µM | ≤ 10 µM
22 | O=c1cc(-c2ccc3c(c2)OCCO3)[nH]c2c(-c3ccccc3)c(C(F)(F)F)nn12 | ≤ 10 µM | ≤ 10 µM | ≤ 10 µM
23 | COc1ccc(-c2cc(=O)n3nc(C)c(Cc4ccc(Cl)cc4)c3[nH]2)cc1OC | – | – | ≥ 10 µM
24 | O=C(c1cnn2c(=O)cc(-c3ccc4c(c3)OCCO4)[nH]c12)N1CCOCC1 | ≤ 10 µM | ≤ 10 µM | –
25 | O=c1cc(-c2ccc3c(c2)OCO3)[nH]c2c(Cc3ccccc3)cnn12 | ≤ 10 µM | ≤ 10 µM | ≤ 10 µM
26 | COC(=O)c1ccc(-c2cc(=O)n3nc(C)c(Cc4ccc(Cl)cc4)c3[nH]2)cc1 | – | – | ≥ 10 µM
27 | O=c1cc(-c2ccc3occc3c2)[nH]c2c(-c3ccccc3)cnn12 | ≤ 10 µM | ≤ 10 µM | ≤ 10 µM
28 | COc1ccc(-c2cc(=O)n3nc(C)c(Cc4ccccc4Cl)c3[nH]2)cc1 | ≤ 10 µM | – | ≥ 10 µM
29 | Cc1nn2c(=O)cc(-c3ccc4c(c3)OCO4)[nH]c2c1Cc1ccc(Cl)cc1 | ≤ 10 µM | ≤ 10 µM | ≤ 10 µM
30 | Cc1nn2c(=O)cc(-c3ccc(C(N)=O)cc3)[nH]c2c1Cc1ccc(Cl)cc1 | – | – | ≥ 10 µM
31 | COc1ccc(-c2cc(=O)n3ncc(-c4cccnc4)c3[nH]2)cc1 | ≤ 10 µM | ≤ 10 µM | ≤ 10 µM
32 | N#Cc1cnn2c(=O)cc(-c3ccc4c(c3)OCCO4)[nH]c12 | ≤ 10 µM | ≤ 10 µM | ≤ 10 µM
33 | Cc1nn2c(=O)cc(-c3ccccc3)[nH]c2c1Cc1ccccc1 | – | – | ≥ 10 µM
34 | Nc1nn2c(=O)cc(-c3ccc(Cl)cc3)[nH]c2c1-c1ccccc1 | ≤ 10 µM | ≤ 10 µM | ≤ 10 µM

More lines, now with the values ahead:

Row | IC50 [1] | IC50 [2] | IC50 [3] | SMILES
35 | ≤ 10 µM | – | – | COc1cc2[nH]nnc2cc1-c1cc(=O)n2nc(O)c(-c3ccccn3)c2[nH]1
36 | ≤ 10 µM | ≤ 10 µM | – | O=c1cc(-c2ccc3c(c2)OCCO3)[nH]c2c(-c3ccccc3)c(O)nn12
37 | ≤ 10 µM | ≤ 10 µM | ≥ 10 µM | O=c1cc(-c2ccc(Cl)cc2)[nH]c2c(-c3cccnc3)c(O)nn12
38 | ≤ 10 µM | ≤ 10 µM | ≤ 10 µM | O=c1cc(-c2ccc(Cl)c(Cl)c2)[nH]c2c(-c3ccccn3)cnn12
39 | – | – | ≤ 10 µM | Cc1nn2c(=O)cc(-c3ccc4c(c3)OCCO4)[nH]c2c1-c1ccccn1
40 | – | ≤ 10 µM | ≤ 10 µM | O=c1cc(-c2ccccn2)[nH]c2c(-c3ccc(F)cc3)cnn12
41 | ≤ 10 µM | – | – | COc1c(-c2cc(=O)n3nc(O)c(-c4ccccn4)c3[nH]2)ccc2[nH]nnc12
42 | – | – | ≥ 10 µM | COc1ccc(-c2cc(=O)n3nc(C)c(Cc4ccccc4)c3[nH]2)cc1OC
43 | ≤ 10 µM | ≤ 10 µM | ≤ 10 µM | O=c1cc(-c2ccc(F)cc2)[nH]c2c(-c3ccccn3)cnn12
44 | ≤ 10 µM | ≤ 10 µM | ≤ 10 µM | O=c1cc(-c2ccc3occc3c2)[nH]c2c(-c3ccccc3)c(O)nn12
45 | ≤ 10 µM | ≤ 10 µM | ≤ 10 µM | Cc1nn2c(=O)cc(-c3ccc4ncccc4c3)[nH]c2c1Cc1ccccc1
46 | ≤ 10 µM | ≤ 10 µM | ≤ 10 µM | O=c1cc(-c2cc3ccccc3o2)[nH]c2c(-c3ccccn3)cnn12
47 | ≤ 10 µM | – | – | Cc1nn2c(=O)cc(-c3ccc4c(c3OC(C)C)OCO4)[nH]c2c1-c1ccccn1
48 | ≤ 10 µM | – | – | COc1c(-c2cc(=O)n3nc(C)c(-c4ccccn4)c3[nH]2)ccc2[nH]nnc12
49 | ≤ 10 µM | – | – | Cc1c(-c2cc(=O)n3nc(N)c(-c4ccccn4)c3[nH]2)ccc2[nH]nnc12
50 | – | ≤ 10 µM | ≤ 10 µM | Cc1nn2c(=O)cc(-c3cccnc3)[nH]c2c1-c1ccc(F)cc1
51 | ≤ 10 µM | ≤ 10 µM | ≤ 10 µM | COc1ccc(-c2cc(=O)n3ncc(-c4ccccn4)c3[nH]2)cc1OC
52 | ≤ 10 µM | – | – | Cc1c(-c2cc(=O)n3nc(O)c(-c4ccccn4)c3[nH]2)ccc2[nH]nnc12
53 | ≤ 10 µM | – | – | Cc1cc2[nH]nnc2cc1-c1cc(=O)n2ncc(-c3ccccn3)c2[nH]1
54 | – | – | ≤ 10 µM | COc1ccc(-c2cc(=O)n3ncc(-c4ccccn4)c3[nH]2)cc1
55 | ≤ 10 µM | ≤ 10 µM | ≤ 10 µM | COc1ccccc1-c1cc(=O)n2ncc(-c3ccccn3)c2[nH]1
56 | ≤ 10 µM | ≤ 10 µM | ≥ 10 µM | O=c1cc(-c2ccc(F)cc2)[nH]c2c(-c3ccccn3)c(O)nn12
57 | ≤ 10 µM | ≤ 10 µM | ≤ 10 µM | O=c1cc(-c2ccc3c(c2)CCO3)[nH]c2c(-c3ccccn3)cnn12
58 | ≤ 10 µM | ≤ 10 µM | ≤ 10 µM | O=c1cc(-c2ccc3c(c2)OCO3)[nH]c2c(-c3cccnc3)c(O)nn12

Row | IC50 [1] | IC50 [2] | IC50 [3] | SMILES
59 | – | – | ≤ 10 µM | O=c1cc(-c2ccc3c(c2)OCO3)[nH]c2c(-c3ccccn3)cnn12
60 | ≤ 10 µM | – | – | Cc1cc2[nH]nnc2cc1-c1cc(=O)n2nc(N)c(-c3ccccn3)c2[nH]1
61 | ≤ 10 µM | – | – | CC(C)Oc1c(-c2cc(=O)n3ncc(-c4ccccn4)c3[nH]2)ccc2c1OCO2
62 | ≤ 10 µM | ≤ 10 µM | ≤ 10 µM | O=c1cc(-c2ccc3c(c2)CCO3)[nH]c2c(-c3cccnc3)c(O)nn12
63 | ≤ 10 µM | – | – | Cc1cc2[nH]nnc2cc1-c1cc(=O)n2nc(O)c(-c3ccccn3)c2[nH]1
64 | – | – | ≤ 10 µM | Cc1nn2c(=O)cc(-c3ccccc3)[nH]c2c1Cc1ccc(Cl)cc1
65 | ≤ 10 µM | ≤ 10 µM | – | O=c1cc(-c2ccc3c(c2)OCCO3)[nH]c2c(-c3ccccn3)c(O)nn12
66 | – | – | ≥ 10 µM | Cc1nn2c(=O)cc(-c3ccc4cc[nH]c4c3)[nH]c2c1Cc1ccccc1
67 | ≤ 10 µM | ≤ 10 µM | – | COc1ccc(-c2cc(=O)n3ncc(-c4ccccn4)c3[nH]2)c(OC)c1
68 | – | – | ≤ 10 µM | Cc1nn2c(=O)cc(-c3ccc4c(c3)CCO4)[nH]c2c1-c1ccccc1
69 | – | – | ≤ 10 µM | Cc1nn2c(=O)cc(-c3ccc4c(c3)OCCO4)[nH]c2c1-c1cccnc1
70 | – | – | ≤ 10 µM | Cc1nn2c(=O)cc(-c3ccc4c(c3)OCO4)[nH]c2c1-c1ccccc1
71 | – | – | ≤ 10 µM | O=c1cc(-c2ccc3c(c2)OCCO3)[nH]c2c(-c3ccccn3)cnn12
72 | ≤ 10 µM | ≤ 10 µM | – | O=c1cc(-c2ccc(Cl)cc2)[nH]c2c(-c3ccccn3)cnn12
73 | ≤ 10 µM | – | – | COc1c(-c2cc(=O)n3nc(N)c(-c4ccccn4)c3[nH]2)ccc2[nH]nnc12
74 | ≤ 10 µM | – | – | Cc1nn2c(=O)cc(-c3ccc4[nH]nnc4c3C)[nH]c2c1-c1ccccn1
75 | – | – | ≤ 10 µM | Cc1nn2c(=O)cc(-c3ccc4c(c3)OCO4)[nH]c2c1-c1ccccn1
76 | ≤ 10 µM | ≤ 10 µM | ≥ 10 µM | COc1ccc(-c2cc(=O)n3nc(O)c(-c4ccccn4)c3[nH]2)c(OC)c1
77 | ≤ 10 µM | ≤ 10 µM | ≥ 10 µM | O=c1cc(-c2ccc3c(c2)CCO3)[nH]c2c(-c3ccccn3)c(O)nn12
78 | ≤ 10 µM | – | – | O=c1cc(-c2ccc(-c3nnco3)cc2)[nH]c2c(-c3ccccn3)cnn12
79 | ≤ 10 µM | ≤ 10 µM | ≤ 10 µM | O=c1cc(-c2ccc3occc3c2)[nH]c2c(-c3ccccn3)c(O)nn12
80 | ≤ 10 µM | ≤ 10 µM | ≤ 10 µM | COc1ccc2c(c1)CCc1c-2[nH]c2c(-c3ccccn3)cnn2c1=O
81 | ≤ 10 µM | ≤ 10 µM | ≥ 10 µM | O=c1cc(-c2ccc(Cl)cc2)[nH]c2c(-c3ccccn3)c(O)nn12
